# From patent US20230048678A1, “ICAN DERIVATIVES FOR ANTIFUNGAL USE” (DEBRECENI EGYETEM, priority 2019, published 2023)
# Entries after “also recorded” stand apart in the source; their conditions may differ.
# How the values were obtained:
# C. albicans isolates = assay: CLSI M27-A3 broth microdilution on Candida isolates (Table 2); type: cell-based
# Experimental: (§1) The tested C. albicans, C. tropicalis, C. parapsilosis, C. glabrata and C. krusei ATCC strains and clinical isolates are listed in Table 2. MICs were determined according to the CLSI M27-A3 [22]. Antifungal agents were dissolved in 100% DMSO and diluted further in RPMI-1640 (with L-glutamine but without bicarbonate) (Sigma, Budapest, Hungary), and buffered to pH 7.0 with 0.165 M morpholinopropanesulfonic acid (MOPS; Sigma, Budapest, Hungary). The final concentration ranges used for AMB and ICAN derivatives were 0.125 to 4 μg/ml and 0.04 to 20 μg/ml, respectively. Yeast cell suspensions were prepared in RPMI 1640 medium and were adjusted to give a final inoculum concentration of 0.5×10^3 to 2.5×10^3 cells/ml. MICs were read visually after 48-h incubation at 35° C. using the partial (50%) inhibition (for ICAN derivatives) (PI) and total inhibition (for AMB and ICAN derivatives) (TI) criteria. MICs were determined at least twice. For amphotericin B isolates with MIC values of ≤2 mg/L were considered wild-types. [Pfaller M A, 2012]
# C. glabrata isolates = assay: as above; type: cell-based
# Experimental: as §1
# C. krusei isolates = assay: as above; type: cell-based
# Experimental: as §1
# C. parapsilosis isolates = assay: as above; type: cell-based
# Experimental: as §1
# C. tropicalis isolates = assay: as above; type: cell-based
# Experimental: as §1
# [1] = tested on: clinical Candida isolates (C. albicans, C. krusei, C. tropicalis, C. glabrata, C. parapsilosis); assay: Broth microdilution, MIC summarised over all clinical Candida isolates; type: cell-based; conditions: range or bound over all tested isolates of five Candida species; read-out: total minimum inhibitory concentration (MICTI)
# Experimental: The present inventors have discovered that 1-amino-5-isocyanonaphthalene (ICAN) and its derivatives exert excellent antifungal activity against a broad range of Candida species. […] Nevertheless, proper formulation and/or substitution with solubility enhancer groups on the naphthalene core may increase its effectiveness. Based on MIC values (MICPI=0.04−0.3 μg/ml MICTI=0.6 μg/ml) and its low cytotoxicity 1,1-N-dimethylamino-5-isocyanonaphthalene (DIMICAN) was selected to be tested on clinical Candida isolates. […] Amphotericin B (AMB) is an antifungal agent which is effective against a number of medically important fungi. The in vivo applicability of DIMICAN was tested on immunosuppressed mice and control experiments were also conducted with amphotericin B. In the model of acute invasive candidiasis, neutropenic mice were infected intravenously with C. albicans isolate 3666 (3×10^4 cfu/mouse) to establish an acute infection, and all untreated control animals died within 6 days. […]
# The tested C. albicans, C. tropicalis, C. parapsilosis, C. glabrata and C. krusei ATCC strains and clinical isolates are listed in Table 2. MICs were determined according to the CLSI M27-A3 [22]. […] MICs were read visually after 48-h incubation at 35° C. using the partial (50%) inhibition (for ICAN derivatives) (PI) and total inhibition (for AMB and ICAN derivatives) (TI) criteria. MICs were determined at least twice. […]
# C. albicans isolate 3666 = assay: Murine model, kidney fungal burden; type: in vivo, BALB/c mice; conditions: immunosuppressed mice, 10^4 cfu/mouse iv
# Experimental: During an independent in vivo experiment mice were infected intravenously with C. albicans isolate 3666. The infected mice were euthanized 2 or 6 days after infection (n=5 and 6 mice/time point, respectively), as disclosed herein, to determine the fungal burdens in the kidneys. Kidney burden was analyzed using a Kruskal-Wallis test with Dunn's posttest for multiple comparisons [Foldi R 2012, Kovacs R 2014]. Results of fungal burden experiments are shown on FIGS. 3b and c. […] It is well seen in […], that on day 6. the fungal burden increased by an order of magnitude (from −10^5 to −10^6) in the case of the untreated mice, while in the case of DIMICAN it remained the same as it was on day 2. The same is valid for AMB.
# We used 10-12 week-old female BALB/c mice for all experiments. Mice were immunosuppressed using 150 mg/kg intraperitoneal (ip) cyclophosphamide dose (4 days prior to infection) and 100 mg/kg ip cyclophosphamide dose (1 day prior to infection; 2 and 5 days after infection) [Spellberg B, 2005]. All mice received ceftazidime (5 mg/day subcutaneously) from days 0 to 6 after infection. Mice were given food and water ad libitum and were monitored daily. The animals were maintained in accordance with the Guidelines for the Care and Use of Laboratory Animals, and the experiments were approved by the Animal Care Committee of the University of Debrecen, Debrecen, Hungary (permission no. 12/2014).
# Mice were infected via the lateral tail vein with C. albicans 3666 bloodstream isolate. In the lethality (10 mice/group) and fungal tissue burden experiments (6 mice/group) the infectious doses were 3×10^4 and 10^4 cfu/mouse, respectively. These doses led to 100% and 0% mortality, respectively by day 6 after infection among untreated mice. Inoculum density was confirmed by plating serial dilutions onto Sabouraud dextrose agar (SDA) plates.
# AMB (Fungizone, commercial preparation) and DIMICAN treatment in a 0.5-ml bolus was started 1 h after infection. The doses were 1 mg AMB and 5 mg DIMICAN (in olive oil/water (o/w) emulsion) per kg body weight. All antifungals were administered intraperitoneally once daily for 5 consecutive days.
# Infected mice were euthanized 2 or 6 days after infection (n=6 mice/time point) to determine the fungal burden in the kidney. […] Aliquots of 0.1 ml of the undiluted and diluted homogenates were plated onto SDA, and the colony count was determined after 48 h. Colony-forming units (CFUs) were determined after 48 h of incubation at 37° C. and results were expressed as cfus/g tissue [Spellberg B, 2005]. […]
# Survival effects were analyzed by the Kaplan—Meier log-rank test. Kidney burden was analysed using a Kruskal—Wallis test with Dunn's posttest for multiple comparisons [Foldi R 2012, Kovacs R 2014].
smiles,measurement,setting,value
"C[C@@H]1[C@H](O)[C@@H](C)/C=C/C=C/C=C/C=C/C=C/C=C/C=C/[C@H](O[C@@H]2O[C@H](C)[C@@H](O)[C@H](N)[C@@H]2O)C[C@@H]2O[C@](O)(C[C@@H](O)C[C@@H](O)[C@H](O)CC[C@@H](O)C[C@@H](O)CC(=O)O[C@H]1C)C[C@H](O)[C@H]2C(=O)O [AMB, Amphotericin B, reference compound]",MICTI,C. albicans isolates; isolate 456,0.5 µg/mL
same,MICTI,C. albicans isolates; isolate 665,1 µg/mL
same,MICTI,C. albicans isolates; isolate 685,0.25 µg/mL
same,MICTI,C. albicans isolates; isolate 720,0.5 µg/mL
same,MICTI,C. albicans isolates; isolate 963,0.5 µg/mL
same,MICTI,C. albicans isolates; isolate 1544,0.25 µg/mL
same,MICTI,C. albicans isolates; isolate 3666,0.5 µg/mL
same,MICTI,C. albicans isolates; isolate 8658,1 µg/mL
same,MICTI,C. albicans isolates; isolate ATCC 10231,0.25 µg/mL
same,MICTI,C. glabrata isolates; isolate 14408,0.5 µg/mL
same,MICTI,C. glabrata isolates; isolate 14559,0.5 µg/mL
same,MICTI,C. glabrata isolates; isolate 22394,0.5 µg/mL
same,MICTI,C. glabrata isolates; isolate 23429,1 µg/mL
same,MICTI,C. glabrata isolates; isolate 23481,1 µg/mL
same,MICTI,C. glabrata isolates; isolate 27643,0.5 µg/mL
same,MICTI,C. glabrata isolates; isolate 28557,0.5 µg/mL
same,MICTI,C. glabrata isolates; isolate ATCC 90030,0.5 µg/mL
same,MICTI,C. krusei isolates; isolate 749,1 µg/mL
same,MICTI,C. krusei isolates; isolate 1853,1 µg/mL
same,MICTI,C. krusei isolates; isolate 4364,1 µg/mL
same,MICTI,C. krusei isolates; isolate 5029,1 µg/mL
same,MICTI,C. krusei isolates; isolate 5072,1 µg/mL
same,MICTI,C. krusei isolates; isolate 25504,0.5 µg/mL
same,MICTI,C. krusei isolates; isolate 34987,1 µg/mL
same,MICTI,C. krusei isolates; isolate ATCC 6258,1 µg/mL
same,MICTI,C. parapsilosis isolates; isolate 4133,0.25 µg/mL
same,MICTI,C. parapsilosis isolates; isolate 9613,0.25 µg/mL
same,MICTI,C. parapsilosis isolates; isolate 10252,0.5 µg/mL
same,MICTI,C. parapsilosis isolates; isolate 18154,0.5 µg/mL
same,MICTI,C. parapsilosis isolates; isolate 27001,0.25 µg/mL
same,MICTI,C. parapsilosis isolates; isolate ATCC 22019,0.5 µg/mL
same,MICTI,C. tropicalis isolates; isolate 579,0.5 µg/mL
same,MICTI,C. tropicalis isolates; isolate 622,1 µg/mL
same,MICTI,C. tropicalis isolates; isolate 1776,1 µg/mL
same,MICTI,C. tropicalis isolates; isolate 2467,0.5 µg/mL
same,MICTI,C. tropicalis isolates; isolate 3014,0.5 µg/mL
same,MICTI,C. tropicalis isolates; isolate 5115,0.5 µg/mL
same,MICTI,C. tropicalis isolates; isolate 5806,0.25 µg/mL
same,MICTI,C. tropicalis isolates; isolate ATCC 750,0.5 µg/mL
same,MIC,[1],≤ 2 µg/mL
same,"effect on kidney fungal burden, six days after infection","C. albicans isolate 3666; 5 mg/kg DIMICAN or 1 mg/kg AMB ip once daily for 5 days, p<0.05 (AMB), p<0.001 (DIMICAN) vs control",efficient; also recorded: significantly lower fungal burden
same,"effect on kidney fungal burden, two days after infection","C. albicans isolate 3666; 5 mg/kg DIMICAN or 1 mg/kg AMB ip once daily, P>0.05 vs control",no effect on fungal load
